Measured values: patent publication US9732075B2, “Benzimidazole-proline derivatives” (IDORSIA PHARMACEUTICALS LTD, priority 2012, dated 2017)

Experiments:
human orexin-1 receptor = human orexin-1 receptor (Homo sapiens (Human), UniProt O43613); assay: In vitro assay: intracellular calcium measurements (FLIPR), antagonistic activity; assay type: cell-based; conditions: CHO cells expressing human orexin-1 receptor, orexin-A agonist, geometric mean, read-out: IC50 Ox1
Procedure, shortened: (§1)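 hOX1R/hOX2R CHO cells, fluo-4 AM + 5 mM probenecid, 50 min 37 °C then 30 min RT. Cpd 120 min, then orexin-A 3 nM final; FLIPR peak height vs vehicle. IC50, geometric mean of repeats.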

human orexin-2 receptor = human orexin-2 receptor (Homo sapiens (Human), UniProt O43614); assay: as above; assay type: cell-based; conditions: CHO cells expressing human orexin-2 receptor, orexin-A agonist, geometric mean, read-out: IC50 Ox2
human orexin-2 receptor, sequence (O43614 whole entry): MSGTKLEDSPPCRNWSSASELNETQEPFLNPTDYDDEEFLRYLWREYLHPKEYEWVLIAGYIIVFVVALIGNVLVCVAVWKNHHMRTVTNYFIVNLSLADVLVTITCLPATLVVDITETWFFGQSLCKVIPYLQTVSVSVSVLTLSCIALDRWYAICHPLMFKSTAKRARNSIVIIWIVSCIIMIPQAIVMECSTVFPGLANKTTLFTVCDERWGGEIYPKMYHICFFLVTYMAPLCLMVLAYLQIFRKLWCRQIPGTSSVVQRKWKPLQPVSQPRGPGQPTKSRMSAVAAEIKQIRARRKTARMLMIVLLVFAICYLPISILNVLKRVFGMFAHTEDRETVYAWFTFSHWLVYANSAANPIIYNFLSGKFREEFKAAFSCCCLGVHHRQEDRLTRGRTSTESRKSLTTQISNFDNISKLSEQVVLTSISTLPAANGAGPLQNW
Procedure, shortened: as §1

human orexin-1 receptor, sequence (O43613 whole entry): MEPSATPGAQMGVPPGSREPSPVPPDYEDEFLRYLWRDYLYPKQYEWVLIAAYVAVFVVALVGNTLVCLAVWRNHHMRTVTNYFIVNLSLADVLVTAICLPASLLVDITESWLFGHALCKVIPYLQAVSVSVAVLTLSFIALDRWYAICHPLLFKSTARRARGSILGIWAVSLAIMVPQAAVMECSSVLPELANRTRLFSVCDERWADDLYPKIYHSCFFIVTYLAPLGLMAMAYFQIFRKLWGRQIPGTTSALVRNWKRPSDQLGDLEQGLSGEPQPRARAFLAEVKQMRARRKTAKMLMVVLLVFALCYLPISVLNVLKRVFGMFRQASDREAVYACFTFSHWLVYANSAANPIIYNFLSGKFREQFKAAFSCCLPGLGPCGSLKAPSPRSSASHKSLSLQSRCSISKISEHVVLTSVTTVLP

SMILES	IC50 (human orexin-1 receptor) [nM]	IC50 (human orexin-2 receptor) [nM]
Cc1nc(C(=O)N2CCCC2c2nc3cc(C(F)(F)F)c(Cl)cc3[nH]2)c(-c2ccccc2)s1 (stereo not drawn) [Ex. 1.137]	4	33
COc1ccc(-n2nccn2)c(C(=O)N2C[C@H](OC)C[C@H]2c2nc3ccc(OC)cc3[nH]2)c1 [Ex. 3.20]	1860	40
COc1ccc2[nH]c(C3CCCN3C(=O)c3cc(C)ccc3-n3nccn3)nc2c1 (stereo not drawn) [Ex. 1.141]	507	13
Cc1nc(C(=O)N2CCCC2c2nc3cc(Br)ccc3[nH]2)c(-c2ccccc2)s1 (stereo not drawn) [Ex. 1.120]	147	557
COc1ccc(-n2nccn2)c(C(=O)N2CCC[C@H]2c2nc3ccc(OC)cc3[nH]2)c1 [Ex. 1.158]	538	20
Cc1nc(C(=O)N2CCCC2c2nc3cc(C(F)(F)F)c(Cl)cc3[nH]2)c(-c2cccc(Cl)c2)s1 (stereo not drawn) [Ex. 1.113]	5	58
CSc1ccc2[nH]c([C@@H]3CCCN3C(=O)c3nc(C)ccc3-n3cccn3)nc2c1 [Ex. 1.178]	2680	96
CO[C@@H]1C[C@@H](c2nc3ccc(Cl)c(C)c3[nH]2)N(C(=O)c2cc(C)c(C)cc2-n2nccn2)C1 [Ex. 3.16]	24	2
COc1ccc2[nH]c([C@@H]3CCCN3C(=O)c3cc(C)ccc3-n3cccn3)nc2c1 [Ex. 1.171]	2210	36
CO[C@H]1CN(C(=O)c2cc(C)ccc2-n2nccn2)C(C)(c2nc3c(C)c(Cl)ccc3[nH]2)C1 (stereo partly drawn) [Ex. 3.25]	5	7
Cc1nc(C(=O)N2CCCC2c2nc3c4c(ccc3[nH]2)OCCO4)c(-c2ccccc2)s1 (stereo not drawn) [Ex. 1.140]	192	46
COc1cccc(-c2sc(C)nc2C(=O)N2CCC[C@H]2c2nc3cccc(SC)c3[nH]2)c1 [Ex. 1.63]	12	9
COc1cc(C(=O)N2C[C@H](OC)CC2(C)c2nc3c(C)c(Cl)ccc3[nH]2)c(-n2nccn2)cc1OC (stereo partly drawn) [Ex. 3.52]	28	27
CSc1cccc2nc([C@@H]3CCCN3C(=O)c3c(C)cccc3-n3nccn3)[nH]c12 [Ex. 1.170]	258	20

Other lines, results leading:

IC50 (human orexin-1 receptor) [nM]	IC50 (human orexin-2 receptor) [nM]	SMILES
13	6	C=C1C[C@@H](c2nc3cc(Cl)c(C(F)(F)F)cc3[nH]2)N(C(=O)c2cc(Cl)ccc2-n2nccn2)C1 [Ex. 6.177]
2	422	Cc1nc(C(=O)N2CC[C@H](C)[C@H]2c2nc3c(C(F)(F)F)cccc3[nH]2)c(-c2cccc(Cl)c2)s1 [Ex. 4.19]
4	19	Cc1cc(C(=O)N2CCC[C@@]2(C)c2nc3cc(C)c(C)cc3n2C)c(-n2nccn2)cc1C [Ex. 7.17]
70	21	C=C1CN(C(=O)c2cc(Cl)ccc2-n2nccn2)C(C)(c2nc3cc(OC)ccc3[nH]2)C1 (stereo not drawn) [Ex. 6.157]
4	1	C=C1C[C@@H](c2nc3c(C)cccc3[nH]2)N(C(=O)c2nc(C)sc2-c2ccc(C)c(C)c2)C1 [Ex. 6.53]
25	65	Cc1cc(C(=O)N2CCC[C@@]2(C)c2nc3c(C)c(Cl)ccc3[nH]2)c(-c2ccccc2)cn1 [Ex. 5.264]
0.8	122	Cc1nc(C(=O)N2CC[C@H](C)[C@H]2c2nc3c(C)c(Cl)ccc3[nH]2)c(-c2ccc(Cl)cc2)s1 [Ex. 4.63]
15	178	Cc1ccc(-n2nccn2)c(C(=O)N2CCC[C@@]2(C)c2nc3cc(F)c(Br)cc3[nH]2)n1 [Ex. 5.131]
115	517	C[C@@]1(c2nc3c(F)c(F)ccc3[nH]2)CCCN1C(=O)c1cc(Cl)ccc1-n1nccn1 [Ex. 5.200]
4	129	COc1ccc(-n2nccn2)c(C(=O)N2CC[C@H](C)[C@H]2c2nc3c(C)cc(Cl)cc3[nH]2)c1 [Ex. 4.97]
63	197	Cc1ccc(-n2nccn2)c(C(=O)N2CCC[C@@]2(C)c2nc3cc(C(F)(F)F)ccc3[nH]2)c1F [Ex. 5.169]
19	83	Cc1c(Cl)ccc2[nH]c([C@]3(C)CCCN3C(=O)c3c(F)cccc3-c3ccccn3)nc12 [Ex. 5.221]
14	19	Cc1cccc(-c2ccc(C)cc2C(=O)N2CCC[C@@]2(C)c2nc3cc(C)c(C)cc3n2CCF)c1 [Ex. 7.28]
422	45	C=C1C[C@@H](c2nc3cc(OC)ccc3[nH]2)N(C(=O)c2nc(C)sc2-c2cc(F)cc(F)c2)C1 [Ex. 6.37]
184	992	COc1cccc(C#Cc2ccccc2C(=O)N2CCC[C@@]2(C)c2nc3cc(C(F)(F)F)ccc3[nH]2)c1 [Ex. 5.250]
8	207	Cc1ccc(-c2nc(C)sc2C(=O)N2CC[C@H](C)[C@H]2c2nc3c(C)c(Cl)ccc3[nH]2)cc1 [Ex. 4.65]

IC50 (human orexin-1 receptor) [nM]	IC50 (human orexin-2 receptor) [nM]	SMILES
344	479	C=C1C[C@@H](c2nc3cc(C(C)(C)C)ccc3[nH]2)N(C(=O)c2cc(OC(F)(F)F)ccc2-n2nccn2)C1 [Ex. 6.169]
2	21	C[C@@]1(c2nc3cc(C(F)(F)F)c(Cl)cc3[nH]2)CCCN1C(=O)c1cc(Cl)ccc1-n1nccn1 [Ex. 5.139]
25	359	Cc1cc2[nH]c([C@@H]3[C@@H](C)CCN3C(=O)c3c(F)cccc3-c3ncccn3)nc2cc1Cl [Ex. 4.133]
7	43	Cc1cc2nc([C@@H]3[C@@H](C)CCN3C(=O)c3ccccc3-n3nccn3)[nH]c2cc1C [Ex. 4.85]
30	4	C=C1C[C@@H](c2nc3ccc(OC)cc3[nH]2)N(C(=O)c2nc(C)sc2-c2ccc(C)c(C)c2)C1 [Ex. 6.46]
91	351	C[C@@]1(c2nc3cc(C(F)(F)F)ccc3[nH]2)CCCN1C(=O)c1ccccc1-n1nccn1 [Ex. 5.167]
10	18	Cc1cc(C(=O)N2CCC[C@@]2(C)c2nc3c(C)cccc3[nH]2)c(-n2nccn2)cc1C [Ex. 5.51]
15	45	Cc1ccc(-c2cccnc2)c(C(=O)N2CCC[C@@]2(C)c2nc3ccc(Cl)c(C)c3[nH]2)c1 [Ex. 5.216]
11	10	C=C1CN(C(=O)c2cc(C)c(C)cc2-n2nccn2)C(C)(c2nc3cc(OC)ccc3[nH]2)C1 (stereo not drawn) [Ex. 6.159]
17	21	COc1ccc(-c2ccc(F)cc2)c(C(=O)N2CCC[C@@]2(C)c2nc3ccc(Cl)c(C)c3[nH]2)c1F [Ex. 5.299]
31	996	Cc1ccc(-c2nc(C)sc2C(=O)N2CC[C@H](C)[C@H]2c2nc3c(C)cc(Cl)cc3[nH]2)cc1 [Ex. 4.96]
203	31	C=C1C[C@@H](c2nc3cc(OC)ccc3[nH]2)N(C(=O)c2nc(C)sc2-c2cccc(C(F)(F)F)c2)C1 [Ex. 6.30]
12	83	Cc1cc(C(=O)N2CCC[C@@]2(C)c2nc3c(F)c(F)ccc3[nH]2)c(-n2nccn2)cc1C [Ex. 5.199]
10	6	Cc1nc(C(=O)N2CCC[C@@]2(C)c2nc3c(C)cccc3[nH]2)c(-c2cccc(Cl)c2)s1 [Ex. 5.4]
56	2030	Cc1ccccc1-c1nc(C(=O)N2CCC[C@@]2(C)c2nc3c(C)c(Cl)ccc3[nH]2)c(-c2ccc(F)cc2)s1 [Ex. 5.228]
